{"source": "patent US7084141B2", "about": "“Inhibitors of macrophase migration inhibitory factor and methods for identifying the same” (Avanir Pharmaceuticals, priority 2001, dated 2006)", "key": {"[1]": {"target": "T1, MIF produced by THP-1 cells (Homo sapiens, UniProt P14174)", "T1 construct": "a test cell may express the MIF naturally (e.g., THP-1 cells); endogenous in cells; host or cells: THP-1 cells stimulated with LPS", "T1 sequence (P14174 2-115 limits assumed)": "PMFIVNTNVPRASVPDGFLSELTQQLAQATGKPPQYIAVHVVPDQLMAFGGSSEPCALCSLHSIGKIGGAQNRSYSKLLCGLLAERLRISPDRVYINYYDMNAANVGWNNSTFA", "experiment": "High throughput screening ELISA for MIF inhibitors (THP-1 supernatant / pre-conditioned media incubated with inhibitor)", "type": "binding", "conditions": "absence of cells, 30 minutes at 37° C.", "protocol": "Alternatively, ELISA may be preferred to detect and quantify the amount of MIF in cell supernatants. ELISA is preferred for detection in high throughput screening. Briefly, 96-well plates are coated with an anti-MIF antibody or anti-tag antibody, washed, and blocked with 2% BSA. Cell supernatant is then added to the wells. Following incubation and washing, a second antibody (e.g., to MIF) is added. The second antibody may be coupled to a label or detecting reagent, such as an enzyme or to biotin. Following further incubation, a developing reagent is added and the amount of MIF determined using an ELISA plate reader. […]\nIn the previous experiment (FIG. 3), the ability of compound 7e to modulate antibody binding to MIF protein was analyzed in the presence of LPS-stimulated THP1 cells. […] Six hours later, the conditioned media was removed, clarified of cell debris and the amount of MIF determined to be 22 ng/ml. […] The level of detectable MIF was then determined by ELISA using the monoclonal anti-MIF antibody for detection. […]\nThe high throughput screening assay for MIF inhibitors is performed in a 96-well format using MIF produced by THP-1 cells and is performed as follows. […] The amount of MIF is calculated by interpolation from an MIF standard curve."}, "[2]": {"target": "T1, MIF produced by THP-1 cells", "experiment": "ELISA of immunoreactive MIF from LPS stimulated THP-1 cells treated with compound", "type": "cell-based", "protocol": "Alternatively, ELISA may be preferred to detect and quantify the amount of MIF in cell supernatants. ELISA is preferred for detection in high throughput screening. Briefly, 96-well plates are coated with an anti-MIF antibody or anti-tag antibody, washed, and blocked with 2% BSA. Cell supernatant is then added to the wells. Following incubation and washing, a second antibody (e.g., to MIF) is added. The second antibody may be coupled to a label or detecting reagent, such as an enzyme or to biotin. Following further incubation, a developing reagent is added and the amount of MIF determined using an ELISA plate reader. The developing reagent is a substrate for the enzyme coupled to the second antibody (typically an anti-isotype antibody) or for the enzyme coupled to streptavidin. Suitable enzymes are well known in the art and include horseradish peroxidase, which acts upon a substrate (e.g., ABTS) resulting in a colorimetric reaction. It is recognized that rather than using a second antibody coupled to an enzyme, the anti-MIF antibody may be directly coupled to the horseradish peroxidase, or other equivalent detection reagent. If desired, cell supernatants may be concentrated to raise the detection level. Further, detection methods, such as ELISA and the like may be employed to monitor intracellular as well as extracellular levels of MIF. When intracellular levels are desired, a cell lysate is preferred. When extracellular levels are desired, media can be screened.\nIn another experiment (FIG. 2), varying concentrations of five different inhibitor analogs were added to LPS stimulated THP-1 cells and allowed to incubate overnight. The following day the amount of immunoreactive MIF detected was evaluated by ELISA. Compound 7e inhibited the ability of the antibody to recognize MIF in a dose dependent fashion with an ED50 of 2 μM, similar to the response obtained with analogs compound 7b and compound 7d.\nIn a further experiment (FIG. 3), the ability of compound 7e to decrease the immunoreactivity of MIF produced by THP-1 cells was determined. THP-1 cells were treated with 10 μg/ml of LPS and 10 μM of compound 7e was added at various times post-LPS stimulation and immunoreactivity monitored with an anti-MIF monoclonal. […] Thus, this experiment measures the activity of compounds or buffer alone controls on MIF detection when the compounds are initially added at various times to cell cultures and then the corresponding conditioned media samples are processed in a time dependent fashion thereafter."}}, "note": "pEC50: −log10 of the molar value."}
{"smiles": "Cn1c(=O)c([N+](=O)[O-])c(N2CCN(C(=O)c3ccco3)CC2)c2ccccc21", "note": "[compound 7e]", "values": [{"measurement": "MIF specific ELISA signal in pre-conditioned media", "setting": "[1]", "value": "rapid loss of MIF specific ELISA signal"}, {"measurement": "immunoreactivity of MIF with anti-MIF monoclonal", "setting": "[2]; 10 μM added at various times post-LPS (10 μg/ml)", "value": "immunoreactivity is rapidly lost"}, {"measurement": "pEC50", "setting": "[2]; LPS stimulated THP-1 cells, incubated overnight, read-out: ED50, inhibition of the ability of the antibody to recognize MIF (ELISA)", "value": 5.70}]}
